Data as given in patent US4277479A, “Tetrazolylalkoxycarbostyril derivatives and pharmaceutical compositions containing them” (Otsuka Pharmaceutical Co., Ltd., priority 1978, dated 1981).

How the values were obtained:
thrombosis = conditions: administered orally or intravenously to mammals including humans; Japanese Patent Kokai No. 125,930/73; cited from earlier work
blood platelets = conditions: at low concentration; Japanese Patent Kokai No. 125,930/73; cited from earlier work
Acute toxicity test = conditions: mouse, in vivo; male mice, oral administration
Experimental: The test compounds were administered orally to the mice and LD50 (mg/kg) of the compounds was determined.

[1] = test system: rabbit platelet (collagen-induced aggregation); assay: Platelet aggregation inhibitory effect, collagen-induced aggregation in rabbit platelet; format: cell-based; conditions: Oryctolagus cuniculus, read-out: Inhibition effect on collagen-induced aggregation in rabbit platelet; for inhibition at 100 µM: concentration of the test compound solution 10^-4 mole; for inhibition at 10 µM: concentration of the test compound solution 10^-5 mole; for inhibition at 1 µM: concentration of the test compound solution 10^-6 mole
Source text: (§1) The blood sample used for the test is a 1/9 (by volume) mixture of sodium citrate and whole blood collected from rabbit. Said sample is subjected to 10-minute centrifugal separation at 1,000 r.p.m. to obtain a platelet rich plasma (PRP). The thus obtained PRP is separated, and the remaining blood sample is further subjected to 15-minute centrifugal separation at 3,000 r.p.m. to obtain a platelet poor plasma (PPP).
(§2) The number of platelets in the PRP is counted by the Brecher-Clonkite Method, and the PRP is diluted with the PPP to prepare a PRP sample with platelet concentration of 300,000/mm^3 for the adenosine diphosphate (ADP)-induced aggregation test. There is also prepared a PRP sample with platelet concentration of 450,000/mm^3 for the collagen-induced aggregation test.
(§3) 0.6 Ml of said PRP sample is added into 0.01 ml of a solution of a test compound of a predetermined concentration and the mixture is placed in a 37° C. thermostat for one minute. Then 0.07 ml of an ADP or collagen solution is added to the mixture. Transmittance of this mixture is determined and the change of transmittance is recorded by using the aggregometer at stirrer speed of 1,100 r.p.m. […] ADP is adjusted to a concentration of 7.5×10^-5 M, and the collagen solution is prepared by triturating 100 mg of collagen with 5 ml of said buffer and the supernatant is used as collagen inducer. Adenosine and acetylsalicylic acid are used as controls for the ADP-induced aggregation test and the collagen-induced aggregation test, respectively. The platelet aggregation inhibitory effect is measured in terms of percent inhibition with respect to the aggregation rate of the controls. The aggregation rate is calculated from the following formula: [formula] wherein a: transmittance of PRP
(§4) b: transmittance of PRP containing a test compound and an aggregation inducer
(§5) The compounds tested are as follows.

[2] = test system: cerebral blood flow, bastard dog; assay: Increasing effect of cerebral blood flow in anesthetized dog; format: in vivo; conditions: Canis lupus familiaris, iv; for change in vivo at 0.3 mg/kg: dosage 300 μg/kg
Experimental: (Test of increasing effect of cerebral blood flow)
Thus, a bastard dog (male, 12-20 kg of body weight) was fixed in a prone (position) and was anesthetized with […] of pentobarbital sodium and forced to breathe at a frequency of respiration of 20 times/minute. Then, the skull was bared and the surface bone was removed to expose the venous sinus by using a grinder and the venous blood was taken out from the venas which was cannulizated. The amount of venous blood flow was measured by using an electromagnetic blood flow meter and next measured by using drop-counter to measure the number of drops of blood per 10 seconds.
The increasing effect of cerebral blood flow was calculated by comparing the number of blood drops in 30 seconds at the peak of increasement shown before and after the administration of compound to be tested. Each of the compounds to be tested was dissolved in dimethylformamide and diluted with physiological saline solution and administered through a cannule being inserted into the profunda femoris vein.

[3] = test system: rabbit platelet (ADP-induced aggregation); assay: Platelet aggregation inhibitory effect, ADP-induced aggregation in rabbit platelet; format: cell-based; conditions: Oryctolagus cuniculus; for inhibition at 100 µM: concentration of the test compound solution 10^-4 mole; for inhibition at 100 µM / inhibition at 10 µM: read-out: Inhibition effect on ADP-induced aggregation in rabbit platelet; for inhibition at 10 µM: concentration of the test compound solution 10^-5 mole; for inhibition at 1 µM: concentration of the test compound solution 10^-6 mole
Source text: as §1, §2, §3, §4, §5

[4] = through profunda femoris vein, dog

Q: Which results are given for `CC(C)(C)NCC(O)COc1cccc2c1CCC(=O)N2` (stereo not drawn) [5-(2'-hydroxy-3-tert-butylamino)-propoxy-3,4-dihydrocarbostyril]?
A: effectiveness for preventing and treating thrombosis (thrombosis): very effective for preventing and treating thrombosis; inhibition of the aggregation of blood platelets (blood platelets): could specifically inhibit the aggregation of blood platelets

Q: With `O=C1CCc2cc(OCCCc3nnnn3C3CCCCC3)ccc2N1` [Compound 3, 6-[3-(1-Cyclohexyltetrazol-5-yl)propoxy]-3,4-dihydrocarbostyril] as the compound, how does the LD50 (Acute toxicity test) read?
A: The LD50 was greater than 1000 mg/kg.

Q: What about the inhibition at 100 µM [1] of the same compound?
A: The inhibition at 100 µM was 100%.

Q: What about the inhibition at 10 µM [1] of the same compound?
A: The inhibition at 10 µM was 53.5%.

Q: And the inhibition at 1 µM [1]?
A: Its inhibition at 1 µM is 10.3%.

Q: And the change in vivo at 0.03 mg/kg ([2]; dosage 30 μg/kg, through profunda femoris vein, dog)?
A: The change in vivo at 0.03 mg/kg was 69%.

Q: What about the inhibition at 100 µM [3] of the same compound?
A: The inhibition at 100 µM was 76.7%.

Q: What about the inhibition at 10 µM [3] of the same compound?
A: Its inhibition at 10 µM is 59.6%.

Q: And the inhibition at 1 µM [3]?
A: Its inhibition at 1 µM is 9.6%.

Q: Which LD50 (Acute toxicity test) does the source give for `O=c1ccc2cc(OCCCc3nnnn3Cc3ccccc3)ccc2[nH]1` [Compound 4, 6-[3-(1-Benzyltetrazol-5-yl)propoxy]carbostyril] here?
A: The LD50 was greater than 1000 mg/kg.

Q: What about the inhibition at 100 µM [1] of the same compound?
A: The inhibition at 100 µM was 100%.

Q: What about the inhibition at 10 µM [1] of the same compound?
A: Its inhibition at 10 µM is 72.5%.

Q: What about the inhibition at 1 µM [1] of the same compound?
A: The inhibition at 1 µM was 10.8%.

Q: And the change in vivo at 0.3 mg/kg [2, 4]?
A: Its change in vivo at 0.3 mg/kg is 65.8%.

Q: What about the inhibition at 100 µM [3] of the same compound?
A: The inhibition at 100 µM was 100%.

Q: What about the inhibition at 10 µM [3] of the same compound?
A: Its inhibition at 10 µM is 45.5%.

Q: And the inhibition at 1 µM [3]?
A: Its inhibition at 1 µM is 3.7%.

Q: What does the source list for `O=c1ccc2cc(OCCCc3nnnn3-c3ccccc3)ccc2[nH]1` [Compound 9, 6-[3-(1-Phenyltetrazol-5-yl)propoxy]carbostyril]?
A: LD50 (Acute toxicity test): > 1000 mg/kg; inhibition at 100 µM [1]: 100%; inhibition at 10 µM [1]: 100%; inhibition at 1 µM [1]: 32.8%; change in vivo at 0.3 mg/kg [2, 4]: 69.9%; inhibition at 100 µM [3]: 100%; inhibition at 10 µM [3]: 45.1%; inhibition at 1 µM [3]: 26.8%

Q: For `O=c1ccc2cc(OCCCc3nnnn3C3CCCCC3)ccc2n1Cc1ccccc1` [Compound 12, 1-Benzyl-6-[3-(1-cyclohexyltetrazol-5-yl)propoxy]carbostyril], which LD50 (Acute toxicity test) is on record?
A: Its LD50 is greater than 1000 mg/kg.

Q: What about the inhibition at 100 µM [1] of the same compound?
A: The inhibition at 100 µM was 92.6%.

Q: What about the inhibition at 10 µM [1] of the same compound?
A: Its inhibition at 10 µM is 41.5%.

Q: And the inhibition at 1 µM [1]?
A: Its inhibition at 1 µM is 21.8%.

Q: What about the inhibition at 100 µM [3] of the same compound?
A: The inhibition at 100 µM was 76.8%.

Q: What about the inhibition at 10 µM [3] of the same compound?
A: The inhibition at 10 µM was 35.2%.

Q: Which LD50 (Acute toxicity test) does the source give for `C=CCn1c(=O)ccc2cc(OCCCc3nnnn3C3CCCCC3)ccc21` [Compound 13, 1-Allyl-6-[3-(1-cyclohexyltetrazol-5-yl)propoxy]carbostyril] here?
A: Its LD50 is greater than 1000 mg/kg.

Q: What about the inhibition at 100 µM [1] of the same compound?
A: Its inhibition at 100 µM is 89.7%.

Q: And the inhibition at 10 µM [1]?
A: Its inhibition at 10 µM is 44.8%.

Q: And the inhibition at 1 µM [1]?
A: The inhibition at 1 µM was 23.2%.

Q: And the inhibition at 100 µM [3]?
A: The inhibition at 100 µM was 81.6%.

Q: And the inhibition at 10 µM [3]?
A: The inhibition at 10 µM was 41.7%.

Q: With `CC(=O)N1C(=O)CCc2cc(OCCCc3nnnn3C3CCCCC3)ccc21` [Compound 14, 1-Acetyl-6-[3-(1-cyclohexyltetrazol-5-yl)propoxy]-3,4-dihydrocarbostyril] as the compound, how does the LD50 (Acute toxicity test) read?
A: The LD50 was greater than 1000 mg/kg.

Q: What about the inhibition at 100 µM [1] of the same compound?
A: Its inhibition at 100 µM is 86.8%.

Q: And the inhibition at 10 µM [1]?
A: The inhibition at 10 µM was 47.3%.

Q: What about the inhibition at 100 µM [3] of the same compound?
A: The inhibition at 100 µM was 79.4%.

Q: And the inhibition at 10 µM [3]?
A: Its inhibition at 10 µM is 43.2%.

Q: Which LD50 (Acute toxicity test) does the source give for `CCc1ccc(-n2nnnc2COc2ccc3c(c2)CCC(=O)N3)cc1` [Compound 15, 6-[1-(4-Ethylphenyl)tetrazol-5-yl-methoxy]3,4-dihydrocarbostyril] here?
A: Its LD50 is greater than 1000 mg/kg.

Q: And the inhibition at 100 µM [1]?
A: Its inhibition at 100 µM is 100%.

Q: What about the inhibition at 10 µM [1] of the same compound?
A: Its inhibition at 10 µM is 35.1%.

Q: And the inhibition at 100 µM [3]?
A: Its inhibition at 100 µM is 78.5%.

Q: What about the inhibition at 10 µM [3] of the same compound?
A: The inhibition at 10 µM was 38.9%.

Q: With `COc1cc(C(=O)N2C(=O)CCc3cc(OCCCc4nnnn4C4CCCCC4)ccc32)cc(OC)c1OC` [Compound 16, 1-(3,4,5-Trimethoxybenzoyl)-6-[3-(1-cyclohexyltetrazol-5-yl)propoxy]-3,4-dihydrocarbostyril] as the compound, how does the LD50 (Acute toxicity test) read?
A: The LD50 was greater than 1000 mg/kg.

Q: And the inhibition at 100 µM [1]?
A: The inhibition at 100 µM was 91.3%.

Q: And the inhibition at 10 µM [1]?
A: Its inhibition at 10 µM is 45.3%.

Q: And the inhibition at 100 µM [3]?
A: Its inhibition at 100 µM is 75.6%.

Q: And the inhibition at 10 µM [3]?
A: Its inhibition at 10 µM is 48.4%.

Q: With `COc1ccc(Cc2nccc3cc(OC)c(OC)cc23)cc1OC` [Papaverine, papaverine, reference compound] as the compound, how does the change in vivo at 1 mg/kg ([2]; read-out: Increasing effect of cerebral blood flow) read?
A: Its change in vivo at 1 mg/kg is 78.9%.
